Assays:
Experiment in all cases: relative viability (nuclei count vs DMSO), 5 days (fraction); higher = more cells survive
[1] = compound: CC(C)N(CCCNC(=O)Nc1ccc(C(C)(C)C)cc1)C[C@H]1O[C@@H](n2ccc3c(N)ncnc32)[C@H](O)[C@@H]1O + COc1cc2c(Oc3ccc(NC(=O)C4(C(=O)Nc5ccc(F)cc5)CC4)cc3F)ccnc2cc1OCCCN1CCOCC1 [Foretinib] (partner 0.25 µM)
How it was run: (§1)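 Lung cancer cell lines in 1536-well plates got either a single drug or a fixed anchor-drug dose together with five library-drug doses (not always all listed) in √10 steps, by pin tool, on the day after seeding. Nuclei were counted after 5 days, and relative viability is the treated-to-vehicle ratio of nuclei counts. Values are medians of duplicate plates.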

Shikonin + Pemetrexed = compound: CC(C)=CC[C@@H](O)C1=CC(=O)c2c(O)ccc(O)c2C1=O [Shikonin] + Nc1nc2[nH]cc(CCc3ccc(C(=O)N[C@@H](CCC(=O)O)C(=O)O)cc3)c2c(=O)[nH]1 [Pemetrexed] (partner 0.2 µM)
How it was run: as §1

[2] = compound: CC(C)N(CCCNC(=O)Nc1ccc(C(C)(C)C)cc1)C[C@H]1O[C@@H](n2ccc3c(N)ncnc32)[C@H](O)[C@@H]1O + Cc1cc(Nc2cc(N3CCN(C)CC3)nc(Sc3ccc(NC(=O)C4CC4)cc3)n2)n[nH]1 [Tozasertib] (partner 0.1 µM)
How it was run: as §1

[3] = compound: CC(C)N(CCCNC(=O)Nc1ccc(C(C)(C)C)cc1)C[C@H]1O[C@@H](n2ccc3c(N)ncnc32)[C@H](O)[C@@H]1O + Nc1nc2[nH]cc(CCc3ccc(C(=O)N[C@@H](CCC(=O)O)C(=O)O)cc3)c2c(=O)[nH]1 [Pemetrexed] (partner 0.2 µM)
How it was run: as §1

Row | Cell Line | relative viability ([1]; first compound 0.08 µM) | relative viability ([1]; first compound 0.253 µM) | relative viability ([1]; first compound 0.8 µM) | relative viability ([1]; first compound 2.53 µM) | relative viability ([1]; first compound 8 µM) | relative viability (Shikonin + Pemetrexed; first compound 0.01 µM) | relative viability (Shikonin + Pemetrexed; first compound 0.1 µM) | relative viability (Shikonin + Pemetrexed; first compound 0.3162 µM) | relative viability (Shikonin + Pemetrexed; first compound 1 µM) | relative viability ([2]; first compound 0.08 µM) | relative viability ([2]; first compound 0.253 µM) | relative viability ([2]; first compound 0.8 µM) | relative viability ([2]; first compound 2.53 µM) | relative viability ([2]; first compound 8 µM) | relative viability ([3]; first compound 0.08 µM) | relative viability ([3]; first compound 0.253 µM) | relative viability ([3]; first compound 0.8 µM) | relative viability ([3]; first compound 2.53 µM) | relative viability ([3]; first compound 8 µM)
1 | Calu-6 | 0.847 | 0.872 | 0.923 | 0.839 | 0.823 |  |  |  |  |  |  |  |  |  |  |  |  |  | 
2 | LC-2-ad | 0.895 | 0.9 | 0.894 | 0.899 | 0.9 | 0.297 | 0.273 | 0.269 | 0.282 | 0.475 | 0.432 | 0.442 | 0.485 | 0.41 | 0.282 | 0.271 | 0.263 | 0.282 | 0.276
3 | CAL-12T | 1.2 | 1.06 | 1.07 | 1.2 | 0.944 | 1.28 | 1.41 | 1.09 | 1.24 | 0.326 | 0.315 | 0.309 | 0.293 | 0.29 | 1.21 | 1.16 | 1.1 | 0.983 | 1.05
4 | SW 1573 | 0.81 | 0.707 | 0.825 | 0.927 | 1.08 | 0.946 | 0.947 | 0.589 | 0.143 | 0.201 | 0.151 | 0.201 | 0.193 | 0.163 | 0.88 | 0.804 | 0.829 | 0.832 | 0.778
5 | NCI-H1650 | 1.12 | 0.939 |  | 1.32 | 0.987 | 0.35 | 0.403 | 0.331 | 0.274 | 0.483 | 0.358 |  | 0.398 | 0.439 | 0.306 | 0.395 | 0.34 | 0.35 | 0.277
6 | BEN | 0.629 | 0.935 | 0.689 | 0.567 | 0.697 | 0.765 | 0.856 | 0.78 | 0.87 | 0.49 | 0.642 | 0.485 | 0.532 | 0.452 | 0.705 | 0.646 | 0.762 | 0.694 | 0.72
7 | EMC-BAC-2 | 0.975 | 0.98 | 1.04 | 1.09 | 0.935 | 0.44 | 0.503 | 0.453 | 0.422 | 0.287 | 0.314 | 0.285 | 0.275 | 0.275 | 0.439 | 0.465 | 0.432 | 0.431 | 0.488
8 | LU99A | 0.795 | 0.782 | 0.78 | 0.767 | 0.749 | 0.174 | 0.206 | 0.191 | 0.199 | 0.279 | 0.316 | 0.276 | 0.237 | 0.261 | 0.178 | 0.206 | 0.176 | 0.204 | 0.167
9 | ABC-1 | 0.92 | 1 |  | 1.41 | 1.07 |  |  |  |  | 0.183 | 0.174 |  | 0.183 | 0.178 |  |  |  |  | 
10 | NCI-H2170 | 0.967 | 0.987 | 0.995 | 0.992 | 0.977 | 0.25 | 0.284 | 0.282 | 0.272 | 0.723 | 0.72 | 0.645 | 0.709 | 0.74 | 0.261 | 0.263 | 0.261 | 0.296 | 0.29
11 | NCI-H1299 | 1.05 | 1.08 | 1.08 | 1.1 | 1.01 |  |  |  |  |  |  |  |  |  |  |  |  |  | 
12 | EBC-1 | 0.108 | 0.098 | 0.1 | 0.0973 | 0.121 |  |  |  |  |  |  |  |  |  |  |  |  |  | 
13 | NCI-H1648 |  |  |  |  |  | 0.793 |  | 0.979 | 0.742 | 0.445 | 0.425 | 0.534 | 0.387 | 0.495 | 0.741 | 0.81 | 0.472 | 0.6 | 0.942
14 | NCI-H1792 |  |  |  |  |  | 0.819 | 0.82 | 0.689 | 0.958 |  |  |  |  |  | 0.769 |  | 0.697 | 0.882 | 0.747
15 | NCI-H727 | 0.872 | 0.891 | 0.777 | 1.13 | 0.877 |  |  |  |  | 0.667 | 0.656 | 0.697 | 0.621 | 0.642 |  |  |  |  | 
16 | HCC-44 |  |  |  |  |  | 0.652 | 0.678 | 0.667 | 0.637 | 0.99 | 1.11 | 0.869 | 1.01 | 1.04 | 0.662 | 0.654 | 0.539 | 0.688 | 0.586
17 | A549 | 0.939 | 1.06 | 1.05 | 0.522 | 0.885 |  |  |  |  |  |  |  |  |  |  |  |  |  | 
18 | NCI-H1563 | 0.952 | 0.975 | 0.988 | 0.957 | 0.931 | 0.769 | 0.846 | 0.897 | 0.845 |  |  |  |  |  | 0.774 | 0.585 | 0.795 | 0.774 | 0.782
19 | NCI-H522 |  |  |  |  |  | 0.937 | 1 | 1.3 | 1.22 | 0.538 | 0.553 | 0.542 | 0.588 | 0.615 | 0.991 | 0.944 | 0.904 | 1.01 | 1.04
20 | IA-LM | 1.01 | 1.28 | 1.14 | 1.2 | 0.99 |  |  |  |  |  |  |  |  |  |  |  |  |  | 
21 | NCI-H1703 | 0.294 | 0.33 |  | 0.403 | 0.401 |  |  |  |  |  |  |  |  |  |  |  |  |  | 

Reference: the supplement of paper PMC10307832
